{
  "source": "paper PMC5770468",
  "about": "“Cardiac glycoside/aglycones inhibit HIV-1 gene expression by a mechanism requiring MEK1/2-ERK1/2 signaling” (Scientific Reports, 2018)",
  "key": {"[1]": {"parameters": "method as in PMID 23555254, PMID 17706876, PMID 6409639", "conditions": "cited from earlier work"}, "[2]": {"test_system": "host alternative RNA splicing", "parameters": "method as in PMID 22456266", "conditions": "of 8,175 analyzed, cited from earlier work"}, "ERK1/2": {"test_system": "ERK1/2", "experiment": "ERK1/2 activation (phospho/total) by western blot in HeLa rtTA-HIV(Gag-GFP) cells", "assay_type": "cell-based, human", "conditions": "relative to DMSO (+)", "experimental": "Figure 6 CSs control HIV-1 gene expression through intracellular signaling. HeLa rtTA-HIV(Gag-GFP) cells were pre-treated with/without pathway inhibitor overnight (~15 h) and treated with ~IC80s of CSs. […] (a–c) ERK1/2, MK-2, and JNK1/2/3 are activated upon treatment of cells with CSs (n ≥ 4–6, 3–4, and 3–6, resp., mean, s.e.m.). Graphs quantifying the activation level (phospho/total protein) of each MAP/MAPK by western blot. In (a), the results of pre-treating cells with a MEK1/2 inhibitor (12 μM U0126, MEKi) on ERK1/2 activation is also shown and a representative immunoblot is provided in Supplementary Figure S9c. (d) Representative immunoblots of MAP/MAPK activation levels from (a–c). (e–g) MEK1/2 activation may be involved in CS inhibition of HIV-1 gene expression. The signaling pathway(s) used by a CS to inhibit HIV-1 expression was determined by detecting Gag-GFP fluorescence in cell lysates (~35 μg) by reducing SDS-PAGE after pre-treatment of cells with a MEK1/2 (12 μM U0126, white), p38α/β/β2 (15 μM SB203580/p38i, gray), or JNK1/2/3 (1.25 μM SP600125/JNKi, hatched) inhibitor (n ≥ 5–7, 4–8, and 3–7, resp., mean, s.e.m.). Results were shown relative to DMSO (+). […]\nFigure 7 Activation of the MEK1/2-ERK1/2 signaling pathway suppresses HIV-1 gene expression. […] RNAs were quantified by qRT-PCR as described in Figures 4a,b. […]"}, "clinical strains of HIV": {"test_system": "clinical strains of HIV", "parameters": "method as in PMID 23555254, PMID 17706876", "conditions": "cited from earlier work"}, "[3]": {"test_system": "HIV-1 (Gag) gene expression", "conditions": "HeLa rtTA-HIV-ΔMls cells; read-out: IC90, HIV-1 (Gag) gene expression (digoxin, published); cited from earlier work"}},
  "data": [
    {"smiles": "C[C@H]1O[C@@H](O[C@H]2[C@@H](O)C[C@H](O[C@H]3[C@@H](O)C[C@H](O[C@H]4CC[C@@]5(C)[C@H](CC[C@@H]6[C@@H]5CC[C@]5(C)[C@@H](C7=CC(=O)OC7)CC[C@]65O)C4)O[C@@H]3C)O[C@@H]2C)C[C@H](O)[C@@H]1O", "note": "[Digitoxin]", "values": [
      {"measurement": "recommended serum concentration in patients treated for heart conditions", "setting": "[1]", "value": "20 to 34", "unit": "nM"},
      {"measurement": "host splicing events affected", "setting": "[2]; q-value = 0, sepscore ≥ 1.0", "value": 1681, "unit": "events"},
      {"measurement": "host splicing events affected, share of analyzed", "setting": "[2]", "value": "~ 20.6%"}
    ]},
    {"smiles": "COc1ccc(C[C@H]2NC[C@H](O)[C@H]2OC(C)=O)cc1", "note": "[anisomycin, Anisomycin]", "values": [
      {"measurement": "ERK1/2 activation", "setting": "ERK1/2", "value": "activated"}
    ]},
    {"smiles": "C[C@H]1O[C@@H](O[C@H]2[C@@H](O)C[C@H](O[C@H]3[C@@H](O)C[C@H](O[C@H]4CC[C@@]5(C)[C@H](CC[C@@H]6[C@@H]5C[C@@H](O)[C@]5(C)[C@@H](C7=CC(=O)OC7)CC[C@]65O)C4)O[C@@H]3C)O[C@@H]2C)C[C@H](O)[C@@H]1O", "note": "[Digoxin]", "values": [
      {"measurement": "effective ex vivo concentration, fold below serum concentration of patients treated for heart conditions (digoxin)", "setting": "clinical strains of HIV", "value": "2–6 fold"},
      {"measurement": "IC90", "setting": "[3]", "value": 100, "unit": "nM"}
    ]}
  ]
}
